According to article PMC6513986, “Molecular basis for heat desensitization of TRPV1 ion channels” (Nature Communications, 2019):

Columns and labels:
[1] = target: mV1_651 (ANAP) (Mus musculus, UniProt Q704Y3, T651X); assay: Agonist activation of ANAP-incorporated channel, patch clamp; assay type: cell-based
[2] = target: platypus TRPV1 (pV1) (Ornithorhynchus anatinus, UniProt F7A7B4); assay: Agonist activation, patch clamp, HEK293T; assay type: cell-based; conditions: whole-cell, 3 mM
[3] = target: pV1_241 (ANAP) (Ornithorhynchus anatinus, UniProt F7A7B4); assay: Agonist activation of ANAP-incorporated channel, patch clamp; assay type: cell-based, platypus
[4] = target: mV1_654 (ANAP) (Mus musculus, UniProt Q704Y3, Y654X); assay: as above; assay type: cell-based
[5] = target: mV1_685 (ANAP) (Mus musculus, UniProt Q704Y3, E685X); assay: as above; assay type: cell-based
[6] = target: pV1_643 (ANAP) (Ornithorhynchus anatinus, UniProt F7A7B4, S634X)
[7] = target: mV1_241 (ANAP) (Mus musculus, UniProt Q704Y3, K241X); assay: Agonist activation of ANAP-incorporated channel, patch clamp; assay type: cell-based
[8] = target: mV1_648 (ANAP) (Mus musculus, UniProt Q704Y3, L648X); assay: as above; assay type: cell-based
[9] = target: mV1_630 (ANAP) (Mus musculus, UniProt Q704Y3, S630X); assay: as above; assay type: cell-based
[10] = target: mV1_579 (ANAP) (Mus musculus, UniProt Q704Y3, C579X); assay: as above; assay type: cell-based
[11] = Emission peak of free ANAP at different temperatures; assay type: physicochemical; conditions: n=3
From the text: ANAP fluorescence was excited by the Ar laser with a 375/28 excitation filter, T400lp dichroic mirror, and 435LP emission filter on an inverted fluorescence microscope (Nikon TE2000-U) using a ×40 oil-immersion objective (numerical aperture (NA) 1.3). Emission spectrum of ANAP was imaged with an Acton SpectraPro 2150i spectrograph in conjunction with an Evolve 512 EMCCD camera. The emission peak value was found by fitting the spectrum with a skewed Gauss distribution.

2APB activation [1]	activation of pV1 by 2-APB ([2]; listed as 2-APB)	activation of pV1 by 2-APB ([2]; listed as 2-aminoethoxydiphenyl borate)	2APB activation [3]	2APB activation [4]	2APB activation [5]	2APB activation [6]	2APB activation [7]	2APB activation [8]	2APB activation [9]	2APB activation [10]	change of emission spectrum during heating [11]	Structure (SMILES)
Yes	currents elicited	directly activated	Yes	Yes	Yes	Yes	Yes	Yes	Yes	Yes	–	NCCOB(c1ccccc1)c1ccccc1 [2APB, 2-aminoethoxydiphenyl borate]
–	–	–	–	–	–	–	–	–	–	–	no change	CC(=O)c1ccc2cc(NCC(N)C(=O)O)ccc2c1 (stereo not drawn) [free ANAP, 3-(6-acetylnaphthalen-2-ylamino)-2-aminopropanoic acid]
